# Source: article PMC9130233, “An inhibitor of RORγ for chronic pulmonary obstructive disease treatment” (Scientific Reports, 2022)
# Where two headings read alike, the source gives them in different places.
# Key:
# [1] = system: IL-17 from mouse BAL cells; experiment: Ex vivo IL-17 release, cultured BAL cells from cigarette smoke exposed mice; type: cell-based; details: BAL cells from CS exposed mice
# Description: The effect of PCCR-1 was evaluated ex vivo using BALf cells from an acute cigarette smoke induced animal model. Animals were exposed to cigarette smoke for 7 days and BALf cells were collected and treated with different doses of PCCR-1 under various stimulatory conditions. […] Stimulation by LPS may represent the inflammatory state during a COPD exacerbation, supporting a potential benefit of PCCR-1 in this disease state.
# C57BL/6 mice were exposed to as per above mentioned protocol. On 7th day, animals were sacrificed and a tracheal cannula was inserted. Three times via the trachea, 1 mL of plain RPMI medium was instilled and recovered by gentle manual aspiration. The recovered BALf was centrifuged, the cell pellet washed twice and finally re-suspended in 5% FBS- RPMI. Isolated BAL cells were pre-incubated with different concentration of PCCR-1 for 60 min, followed by stimulating with 1 µg/ml soluble mouse anti-CD3 and 3 µg/ml mouse anti-CD28 mAbs and/or 100 ng/ml of LPS and incubated for 24-48 h at 37 °C. The supernatant was used for estimating IL-17 by ELISA.
# [2] = system: Cerep Panel of receptors, ion channels and enzymes; experiment: Cerep panel of receptors (binding/functional assays); parameters: key: NSE No significant effect; V wk very weak (very low-level agonist activity seen with mPPARγ); details: at 10 µM, except targets listed in the next line
# Description: Based on the homology of the ligand binding domains, 3 different isoforms of ROR (hRORα, hRORβ and hRORγ) are reported. Small variations in the LBD regions possibly lead to differences in competitive binding between the nuclear receptors of the ROR isoforms (Fig. 1b). Similar to the assessment of RORγ binding assay, TR-FRET binding assays were also used to assess the affinity of PCCR-1 for other ROR isoforms. […] This was reconfirmed in cellular functional assays for the selected isoforms and nuclear receptors using Gal4 DBD with luciferase reporter system from Indigo (PA, USA). […] In addition, both cellular agonist and antagonist effects as well as for enzyme activity were evaluated with a known reference compound for each target, using a radiolabeled method (Eurofins Cerep, France, Table 1).
# [3] = Toxicokinetics (blood), 14-day inhalation study in Sprague Dawley rats; type: in vivo, rat; details: for half-life / AUC(0-t) / Cmax / Tmax: inhaled or intranasal; for half-life / AUC(0-t) / Cmax: inhalation; for AUC(0-t): read-out: AUC0-tlast, mean (SE); for Cmax: read-out: Cmax, mean (SE)
# Description: Rats were exposed to PCCR-1 aerosols at 3.4, 10.8 and 32.1 mg/kg/day (delivered dose) for 60 min daily for 14 days using a snout only exposure technique via a modular stainless steel flow past inhalation chamber at indicated doses as mentioned in Table 3. No treatment-related findings noted, including myeloid:erythroid (M:E) ratios in any dose levels except minimal changes in the reticulocytes and adrenal glands.
# The TK assessment was done by measuring the concentrations of PCCR-1 in blood.
# The toxicology study was done in SD (Sprague Dawley) rats that were exposed to PCCR-1 aerosol for 60 min daily at 3.4, 10.8 and 32.1 mg/kg/day (delivered dose) for 14 days using a snout only exposure technique via a modular stainless steel flow past inhalation chamber. A 60% w/w blend of PCCR-1 in Lactose LH201 was prepared by adding the appropriate amount of PCCR-1 to the appropriate amount of lactose. The estimated delivered doses were derived based on analytical aerosol concentration, and respiratory minute volume calculated based on body weight, exposure duration, and animal body weight (Supplementary section B).
# [4] = both sexes, Sprague Dawley, rat, blood, 10.8 mg/kg/day, SD rat blood, 10.8 mg/kg/day, Day 1, Mean
# [5] = both sexes, Sprague-Dawley, rat, blood, 3.4 mg/kg/day, SD rat blood, 3.4 mg/kg/day, Day 1, Mean
# [6] = both sexes, Sprague-Dawley, rat, blood, 3.4 mg/kg/day, SD rat blood, 3.4 mg/kg/day, Day 14, Mean
# [7] = both sexes, Sprague-Dawley, rat, in vivo, 32.1 mg/kg/day, SD rat blood, 32.1 mg/kg/day, Day 1, Mean
# [8] = both sexes, Sprague-Dawley, rat, in vivo, 32.1 mg/kg/day, SD rat blood, 32.1 mg/kg/day, Day 14, Mean
# [9] = both sexes, Sprague-Dawley, rat, whole blood, 10.8 mg/kg/day, SD rat blood, 10.8 mg/kg/day, Day 14, Mean
# [10] = female, Sprague-Dawley, rat, blood, 3.4 mg/kg/day, SD rat blood, 3.4 mg/kg/day, Day 1, Female
# [11] = female, Sprague-Dawley, rat, blood, 3.4 mg/kg/day, SD rat blood, 3.4 mg/kg/day, Day 14, Female
# [12] = female, Sprague-Dawley, rat, blood, 10.8 mg/kg/day, SD rat blood, 10.8 mg/kg/day, Day 1, Female
# [13] = female, Sprague-Dawley, rat, in vivo, 32.1 mg/kg/day, SD rat blood, 32.1 mg/kg/day, Day 1, Female
# [14] = female, Sprague-Dawley, rat, in vivo, 32.1 mg/kg/day, SD rat blood, 32.1 mg/kg/day, Day 14, Female
# [15] = female, Sprague-Dawley, rat, whole blood, 10.8 mg/kg/day, SD rat blood, 10.8 mg/kg/day, Day 14, Female
# [16] = male, Sprague Dawley, rat, blood, 10.8 mg/kg/day, SD rat blood, 10.8 mg/kg/day, Day 1, Male
# [17] = male, Sprague-Dawley, rat, blood, 3.4 mg/kg/day, SD rat blood, 3.4 mg/kg/day, Day 1, Male
# [18] = male, Sprague-Dawley, rat, blood, 3.4 mg/kg/day, SD rat blood, 3.4 mg/kg/day, Day 14, Male
# [19] = male, Sprague-Dawley, rat, in vivo, 32.1 mg/kg/day, SD rat blood, 32.1 mg/kg/day, Day 1, Male
# [20] = male, Sprague-Dawley, rat, in vivo, 32.1 mg/kg/day, SD rat blood, 32.1 mg/kg/day, Day 14, Male
# [21] = male, Sprague-Dawley, rat, whole blood, 10.8 mg/kg/day, SD rat blood, 10.8 mg/kg/day, Day 14, Male
# [22] = rat blood, mid and high dose levels
compound,measurement,setting,value
CCn1c(C(C)(C)Oc2ccc(F)cc2F)nc2cc(NC(=O)Cc3ccc(S(=O)(=O)CC)cc3)ccc21 [PCCR-1],IC50,"[1]; LPS induced, read-out: IL-17 IC50, Mouse BAL cells: LPS",802 nM
same,IC50,"[1]; anti-CD3 + anti-CD28 induced, read-out: IL-17 IC50, Mouse BAL cells: CD3+CD28",903 nM
same,IC50,"[1]; basal, read-out: IL-17 IC50, Mouse BAL cells: Basal",873 nM
same,Cerep Panel of receptors (binding/functional assays),[2],NSE at 10 µM except#
same,half-life,"[3]; Sprague-Dawley, in vivo, SD rat blood, 32.1 mg/kg/day, Day 1, Female",6.9 h
same,half-life,"[3]; Sprague-Dawley, in vivo, SD rat blood, 32.1 mg/kg/day, Day 1, Male",6.8 h
same,AUC(0-t),[3]; [4],5090 ng·h/mL
same,Cmax,[3]; [4],457 ng/mL
same,Tmax,"[3]; both sexes, Sprague Dawley, rat, blood, 10.8 mg/kg/day, from start of inhalation dosing, SD rat blood, 10.8 mg/kg/day, Day 1, Mean",3 h
same,half-life,"[3]; both sexes, Sprague-Dawley, in vivo, SD rat blood, 32.1 mg/kg/day, Day 1, Mean",6.8 h
same,AUC(0-t),[3]; [5],982 ng·h/mL
same,Cmax,[3]; [5],189 ng/mL
same,half-life,[3]; [6],6.4 h
same,AUC(0-t),[3]; [6],2560 ng·h/mL
same,Cmax,[3]; [6],215 ng/mL
same,Tmax,"[3]; both sexes, Sprague-Dawley, rat, blood, 3.4 mg/kg/day, from start of inhalation dosing, SD rat blood, 3.4 mg/kg/day, Day 1, Mean",3 h
same,Tmax,"[3]; both sexes, Sprague-Dawley, rat, blood, 3.4 mg/kg/day, from start of inhalation dosing, SD rat blood, 3.4 mg/kg/day, Day 14, Mean",4 h
same,AUC(0-t),[3]; [7],7440 ng·h/mL
same,Cmax,[3]; [7],735 ng/mL
same,AUC(0-t),[3]; [8],12200 ng·h/mL
same,Cmax,[3]; [8],1020 ng/mL
same,half-life,"[3]; both sexes, Sprague-Dawley, rat, whole blood, 10.8 mg/kg/day, SD rat blood, 10.8 mg/kg/day, Day 1, Mean",5.9 h
same,half-life,[3]; [9],5.1 h
same,AUC(0-t),[3]; [9],6750 ng·h/mL
same,Cmax,[3]; [9],519 ng/mL
same,Tmax,"[3]; both sexes, Sprague-Dawley, rat, whole blood, 10.8 mg/kg/day, from start of inhalation dosing, SD rat blood, 10.8 mg/kg/day, Day 14, Mean",4 h
same,tlast,"[3]; both, Sprague-Dawley, rat, in vivo, 3.4 mg/kg/day",25.0 h
same,tlast,"[3]; both, Sprague-Dawley, rat, in vivo, 10.8 mg/kg/day",25.0 h
same,AUC(0-t),[3]; [10],1000 ng·h/mL
same,Cmax,[3]; [10],202 ng/mL
same,AUC(0-t),[3]; [11],2610 ng·h/mL
same,Cmax,[3]; [11],241 ng/mL
same,Tmax,"[3]; female, Sprague-Dawley, rat, blood, 3.4 mg/kg/day, from start of inhalation dosing, SD rat blood, 3.4 mg/kg/day, Day 1, Female",3 h
same,Tmax,"[3]; female, Sprague-Dawley, rat, blood, 3.4 mg/kg/day, from start of inhalation dosing, SD rat blood, 3.4 mg/kg/day, Day 14, Female",5 h
same,half-life,[3]; [12],5.8 h
same,AUC(0-t),[3]; [12],7270 ng·h/mL
same,Cmax,[3]; [12],544 ng/mL
same,Tmax,"[3]; female, Sprague-Dawley, rat, blood, 10.8 mg/kg/day, from start of inhalation dosing, SD rat blood, 10.8 mg/kg/day, Day 1, Female",3 h
same,tlast,"[3]; female, Sprague-Dawley, rat, in vivo, 3.4 mg/kg/day",25.0 h
same,tlast,"[3]; female, Sprague-Dawley, rat, in vivo, 10.8 mg/kg/day",25.0 h
same,AUC(0-t),[3]; [13],9470 ng·h/mL
same,Cmax,[3]; [13],936 ng/mL
same,AUC(0-t),[3]; [14],16200 ng·h/mL
same,Cmax,[3]; [14],1150 ng/mL
same,half-life,[3]; [15],5.1 h
same,AUC(0-t),[3]; [15],8050 ng·h/mL
same,Cmax,[3]; [15],679 ng/mL
same,Tmax,"[3]; female, Sprague-Dawley, rat, whole blood, 10.8 mg/kg/day, from start of inhalation dosing, SD rat blood, 10.8 mg/kg/day, Day 14, Female",3 h
same,tlast,"[3]; from start of inhalation dosing, SD rat blood, 3.4 mg/kg/day, Day 1, Female",9.0 h
same,tlast,"[3]; from start of inhalation dosing, SD rat blood, 3.4 mg/kg/day, Day 1, Male",9.0 h
same,tlast,"[3]; from start of inhalation dosing, SD rat blood, 3.4 mg/kg/day, Day 1, Mean",9.0 h
same,tlast,"[3]; from start of inhalation dosing, SD rat blood, 32.1 mg/kg/day, Day 1, Female",25.0 h
same,tlast,"[3]; from start of inhalation dosing, SD rat blood, 32.1 mg/kg/day, Day 1, Male",25.0 h
same,tlast,"[3]; from start of inhalation dosing, SD rat blood, 32.1 mg/kg/day, Day 1, Mean",25.0 h
same,tlast,"[3]; from start of inhalation dosing, SD rat blood, 32.1 mg/kg/day, Day 14, Female",25.0 h
same,tlast,"[3]; from start of inhalation dosing, SD rat blood, 32.1 mg/kg/day, Day 14, Male",25.0 h
same,tlast,"[3]; from start of inhalation dosing, SD rat blood, 32.1 mg/kg/day, Day 14, Mean",25.0 h
same,half-life,[3]; [16],6 h
same,AUC(0-t),[3]; [16],2910 ng·h/mL
same,Cmax,[3]; [16],370 ng/mL
same,Tmax,"[3]; male, Sprague Dawley, rat, blood, 10.8 mg/kg/day, from start of inhalation dosing, SD rat blood, 10.8 mg/kg/day, Day 1, Male",3 h
same,tlast,"[3]; male, Sprague Dawley, rat, in vivo, 10.8 mg/kg/day",25.0 h
same,AUC(0-t),[3]; [17],963 ng·h/mL
same,Cmax,[3]; [17],177 ng/mL
same,half-life,[3]; [18],6.4 h
same,AUC(0-t),[3]; [18],2500 ng·h/mL
same,Cmax,[3]; [18],190 ng/mL
same,Tmax,"[3]; male, Sprague-Dawley, rat, blood, 3.4 mg/kg/day, from start of inhalation dosing, SD rat blood, 3.4 mg/kg/day, Day 1, Male",3 h
same,Tmax,"[3]; male, Sprague-Dawley, rat, blood, 3.4 mg/kg/day, from start of inhalation dosing, SD rat blood, 3.4 mg/kg/day, Day 14, Male",3 h
same,tlast,"[3]; male, Sprague-Dawley, rat, in vivo, 3.4 mg/kg/day",25.0 h
same,tlast,"[3]; male, Sprague-Dawley, rat, in vivo, 10.8 mg/kg/day",25.0 h
same,AUC(0-t),[3]; [19],5410 ng·h/mL
same,Cmax,[3]; [19],534 ng/mL
same,AUC(0-t),[3]; [20],8230 ng·h/mL
same,Cmax,[3]; [20],885 ng/mL
same,AUC(0-t),[3]; [21],5440 ng·h/mL
same,Cmax,[3]; [21],359 ng/mL
same,Tmax,"[3]; male, Sprague-Dawley, rat, whole blood, 10.8 mg/kg/day, from start of inhalation dosing, SD rat blood, 10.8 mg/kg/day, Day 14, Male",5 h
same,AUC in blood accumulation relative to day-1,"[3]; once-daily inhalation for 14 days, except female rats at 10.8 mg/kg/day",1.5–2.6 fold
same,AUC in females higher than males,[3]; [22],1.5–2.5 fold
same,Cmax in females higher than males,[3]; [22],1.3–1.9 fold
